Source: ChEMBL document CHEMBL1158310, “Cytotoxic Degradation Product of Physostigmine” (1996)
Converted amounts (≈) assume the structure as drawn. The source made the active and inactive calls. The rule behind the calls is not given here.

Legend:
ZR-75-1 = assay: Cytotoxicity against human ZR-75-1 cells; type: functional, cell-based
KB = assay: Cytotoxicity against human KB cells; type: functional; conditions: read-out: ED50 (the source's name)
[1] = Cytotoxicity against human KBVIN cells in absence of vinblastine; type: functional; conditions: read-out: ED50 (the source's name)
Lu1 = assay: Cytotoxicity against human Lu1 cells; type: functional; conditions: read-out: ED50 (the source's name)
[2] = Cytotoxicity against human KBVIN cells in presence of vinblastine; type: functional; conditions: read-out: ED50 (the source's name)
[3] = Antimitotic activity in rat ASK cells assessed as astrocyte generation at […] by light microscopy; type: functional; conditions: read-out: ED50 (the source's name)
LNCaP = assay: Cytotoxicity against human LNCAP cells; type: functional; conditions: read-out: ED50 (the source's name)

SMILES	Activity (ZR-75-1)	EC50 (KB) [µg/mL]	EC50 [1] [µg/mL]	EC50 (Lu1) [µg/mL]	EC50 [2] [µg/mL]	EC50 [3] [µg/mL]	EC50 (LNCaP) [µg/mL]
CCNC1=CC2=N[C@H]3N(C)CC[C@@]3(C)C2=CC1=O	inactive	0.2 (≈ 0.815 µM)	0.8 (≈ 3.26 µM)	1.5 (≈ 6.11 µM)	0.6	1.9 (≈ 7.74 µM)	0.3 (≈ 1.22 µM)
CN1CC[C@@]2(C)C3=CC(=O)C(=O)C=C3N(C)[C@@H]12 [RUBRESERINE]	Active	> 20	16.8 (≈ 72.3 µM)	> 20	> 20	> 20	13.1 (≈ 56.4 µM)
